These are literature values, as cited in patent US20200261395A1, “METHOD FOR TREATMENT OF ROSACEA” (Sol-Gel Technologies Ltd., priority 2019, published 2020).

In this series the test system is rosacea lesions. The settings on record: BPO as sole active agent.

Take `O=C(OOC(=O)c1ccccc1)c1ccccc1` [BPO, Benzoyl peroxide]: the “Response of rosacea lesions” value is given as “unresponsive”.
